Where “and” joins values, the source holds several entries; their conditions need not be identical. Equal entries are not always repeated.
How the values were obtained:
[1] = Viscosity reduction by excipients (rheometer); type: physicochemical; details: 37° C.
Protocol: The viscosity of 29 kDa HA (60 mg/mL), 33HA-Lys (33 kDa HA with linker, 8 mg/mL on HA basis), and 33HA-Lys-Pt (41.7 mg/mL on HA basis) with increasing concentration of mannitol (0, 0.1, 0.5 and 1 M) were measured using a rheometer at 37° C.
(§1) The solutions were incubated in the dark for 20 hours using a CLAY ADAMS® Brand Nutator. After 20 hours, the pH of the solutions were adjusted to pH 6.0 using 1N NaOH. A Brookfield DVIII Ultra Programmable Rheometer was used to measure the viscosity of three 500-μL samples of each solution. Measurements were taken for each at three different RPMs, where the torque ranged from 10-100%. Values for viscosity were not recorded until at least 30 seconds after the motor was started, after the torque readings were stabilized.
as §1, with “to pH 5.0 or 6.0 using” for “to pH 6.0 using”

[2] = test system: MDA-1986 (human head and neck squamous cell carcinoma) cells; assay: Anti-proliferative activity (Resazurin Blue, 72 hours); type: cell-based
Protocol: (§3) MDA-1986 (human head and neck squamous cell carcinoma), 4T1.2-neu (murine breast cancer cells), and A2058 (human melanoma) cells were maintained in Dulbecco's Modified Eagle Medium (DMEM, Corning, Manassas, Va.) with 4.5 g/L glucose, 4.5 g/L L-glutamine, and 10% fetal bovine serum in a humidified incubator at 37° C. and 5% CO2. Cells were seeded into 96-well plates (3,000 cells/well in 90 μL media) and allowed to attach overnight. […] Resazurin Blue (Acros Organics, Geel, Belgium) in PBS was added to each well (5-μM final concentration; 10-μL addition) and incubated at 37° C. for 4 hours. Fluorescence (λex 550 nm, λem 605 nm) was quantified with a SpectraMax Gemini XS plate-reader (Molecular Devices, Sunnyvale, Calif.). The relative growth of cells incubated with each compound concentration was normalized to vehicle-treated controls (100% proliferation). Data from at least three separate experiments performed in duplicate was analyzed using non-linear regression (GraphPad Prism 5.0) to generate IC50 values.

[3] = test system: MDA-1986 head and neck tumors; assay: Anticancer efficacy, orthotopic xenograft model of human HNSCC; type: in vivo, mouse; set-up: key to tumor response, Modified RECIST: PR=Partial Response (>30% reduction); PD=Progressive Disease (>30% tumor growth); SD=Stable Disease (neither PR nor PD criteria met)
Protocol: The MDA-1986 cells were prepared in PBS at a concentration of 2×10^7 cells/mL. Female NU/NU mice were anesthetized under 2% isoflurane in O2, and 50 μL of cell solution was injected into the oral sub-mucosa of the mice using a 27-ga needle. All procedures in the animal study were approved by the Institutional Animal Care and Use Committee of the University of Kansas. Tumor growth was monitored twice weekly by measurement with a digital caliper, and the tumor volume was calculated as 0.52×(width)^2×(length). […] The drugs were given weekly for 3 consecutive weeks.

[4] = Viscosity reduction by excipients (rheometer); type: physicochemical; details: sucrose 0.1, 0.5 and 1 M, 37° C.
[5] = Toxicity of HA-Lys-Pt in healthy Balb/c mice; type: in vivo, mouse
Protocol: The toxicity of HA-Lys-Pt was evaluated in healthy Balb/c mice. […] Another group of Balb/c mice was injected subcutaneously with 8.86 (N=2), 13.3 (N=2), 17.7 (N=2), 20 (N=2), 30 (N=2), and 40 mg/kg (N=1) of the 33HA-Lys-Pt. Their body weights and symptoms of toxicities were monitored twice per week for up to 2 months.

[6] = HPLC of small molecular platinum species after storage; type: physicochemical; details: solution stored at 4° C. for 4 days
Protocol: Small molecular platinum species including cisplatin, Pt-monoaqua, and Pt-diaqua were quantified by HPLC. The mobile phase was sodium phosphate solution (10-mM, pH 3.0) at a flow rate of 0.25 mL/min on an Alltech® 250 mm×4.6 mm M/M RP8/cation column thermostated at 25° C. […] The filtrate was immediately injected into the HPLC.

Plasma Pt quantitation = details: cisplatin i.v. 10 mg/kg; HA-Lys-Pt s.c. 10 mg/kg cisplatin basis
Protocol: (§2) Whole blood was centrifuged (1500×g, 5 min., 4° C., no brake). Top layer (plasma) and middle layer (white blood cells) were transferred to new tubes. Plasma was frozen (−20° C.) until analysis. […] The white blood cell pellet was washed twice with cold PBS and re-suspended in 9 mL of white blood cell buffer (10-mM Tris, pH 7.4, 2.3% NaCl, 2-mM EDTA), and 900 μL of 1.1-M NH4HCO3, 900 μL of 10% SDS, and 75 μL of 2% Proteinase K were added and incubated at 42° C. overnight. Then, 3.3 mL of 5-M NaCl was added, samples shaken vigorously, and centrifuged twice (3200×g, 5 min, 4° C.), each time discarding the pellet. DNA was pelleted with 20 mL of ice-cold 100% ethanol and centrifuged (3200×g, 5 min, 4° C.); the DNA pellet was washed twice with 75% ethanol, re-suspended in water, and quantitated. DNA was digested in 1% HNO3 (800 μL total volume) overnight at 70° C. DNA samples were diluted 1:10 in 1% HNO3 and plasma samples were diluted 1:10,000 in 1% HNO3. Diluted samples were analyzed for Pt content using ICP-MS with a calibration curve from 1-1000 ppt.

white blood cell DNA = assay: Pt-DNA adduct quantitation in white blood cell DNA; type: in vivo, rat; details: for Pt-DNA adduct Tmax / Pt-DNA adduct AUC: cisplatin i.v. 10 mg/kg, HA-Lys-Pt s.c. 10 mg/kg cisplatin basis; for Pt-DNA adduct AUC: 10 mg/kg
Protocol: as §2

[7] = Transmission electron microscopy, particle diameter; type: physicochemical; details: TEM
Text: FIGS. 4A and 4B show the transmission electron microscopy images of HA-Lys-Pt (75 kD HA) before and after salt treatment for 2 weeks. The average diameters of HA-Lys-Pt particles ranged from 25 to 50 nm. […] Intense darkness results from the high electron density of Pt rich area. […] Reduced clustering of the salt treated nanoparticles may be due to reduced hydrophobicity due to release of Pt and availability of charged chelator groups.

[8] = human, in vivo; cited from earlier work
[9] = test system: head and neck squamous cell carcinoma cells, MDA-1986; assay: Cytotoxicity of HA-GluH-Pt (Resazurin blue); type: cell-based, human; details: 72 hours
Protocol: Cell growth inhibition was determined in 96-well plates using head and neck squamous cell carcinoma cells, MDA-1986. […] Plates were seeded with 3,000 cells/well in 90 uL of media (6 replicates/sample). Ten microliters of HA-GluH-Pt conjugate solutions were applied after 24 hours. Resazurin blue in 10 uL of PBS was applied to each well (final concentration 5 uM) after another 72 hours.

[10] = test system: MDA-1986 cells that overexpress CD44; assay: CD44 specificity and cellular uptake of HA-GluH-Pt; type: cell-based, human; details: 30-μg/mL, 6 h
Protocol: CD44 specificity and cellular internalization mechanism of HA-GluH-Pt was investigated using MDA-1986 cells that overexpress CD44. Chlorpromazine was used as an endocytosis inhibitor. Cells were pretreated with 25-μM chlorpromazine or 10-μg/mL anti-CD44 1 h before the addition of 30-μg/mL HA-GluH-Pt (on platinum basis) and subsequent incubation for 6 h. Cells were trypsinized, lysed by sonication and diluted 20 fold prior to ICP-MS analysis.

[11] = Toxicity of HA-GluH-Pt in mice; type: in vivo, mouse; details: single s.c. 20, 40, 67 and 100 mg/kg, 2 months
Protocol: The toxicity of HA-GluH-Pt was evaluated in blab/C mice. Four blab/C mice were injected subcutaneously with 20, 40, 67 and 100 mg/kg HA-GluH-Pt. The body weights of the animals were checked weekly for 2 months.

[12] = test system: spontaneous canine cancers; details: dogs; cited from earlier work
[13] = test system: 4T1.2-neu (murine breast cancer cells); assay: Anti-proliferative activity (Resazurin Blue, 72 hours); type: cell-based; details: mean ± S.E.M., cisplatin basis
Protocol: as §3

[14] = test system: A2058 (human melanoma) cells; assay: as above; type: cell-based; details: mean ± S.E.M., cisplatin basis
Protocol: as §3

With “HA-cis-[Pt(NH3)2(N^α-Acetyl-L-Lysine)] [33HA-Lys-Pt]” the effect on viscosity ([1]; mannitol 0.1, 0.5 and 1 M) was “reduced the viscosity”, the effect on viscosity ([1]; trehalose 0.1, 0.5 and 1 M) was “reduced the viscosity” and the IC50 ([2]; mean ± S.E.M., cisplatin basis, listed as HA-Lys-Pt 33 kDa) was 20.7 ± 2.9 µM. The IC50 ([2]; text b180, listed as HA-Lys-Pt 33 kDa) was ~40 µM, the “tumor response, Modified RECIST” value ([3]; animal #1) was “PR (PR=Partial Response (>30% reduction))” and the “tumor response, Modified RECIST” value ([3]; animal #2) was “PR (PR=Partial Response (>30% reduction))”. The “tumor response, Modified RECIST” value ([3]; animal #3) was “SD”, the “tumor response, Modified RECIST” value ([3]; animal #4) was “PR (PR=Partial Response (>30% reduction))” and the “tumor response, Modified RECIST” value ([3]; animal #5) was “PR (PR=Partial Response (>30% reduction))”. The “tumor response, Modified RECIST” value ([3]; animal #6) was “SD”, the “tumor response, Modified RECIST” value ([3]; animal #7) was “PR (PR=Partial Response (>30% reduction))” and the “tumor response, Modified RECIST” value ([3]; animal #8) was “PR (PR=Partial Response (>30% reduction))”. For the same compound, the “rate of partial response (PR)” value ([3]; three weekly injections) was 75% and the effect on viscosity [4] was “reduced the viscosity”.

In the case of “HA-cis-[Pt(NH3)2(N^α-Acetyl-L-Lysine)] [HA-Lys-Pt]”, the body weight recovery ([5]; 20 or 30 mg/kg (on cisplatin basis), weight loss began one-week post treatment) is reported as “returned to pre-dose weight within another two weeks”, the body weight recovery ([5]; highest dose (40 mg/kg), compared with 20 or 30 mg/kg) is reported as “one additional week” and the “acute toxic reactions including lethargy, paralysis, and respiratory depression” value ([5]; single s.c. injection, any dose level) is reported as “not observed”. The “Pt-monoaqua and Pt-diaqua detection” value [6] was “Neither Pt-monoaqua nor Pt-diaqua was detected”, the “plasma Pt Cmax” value (Plasma Pt quantitation) was 4.1±2.4 μg Pt/mL plasma and the “plasma Pt Tmax” value (Plasma Pt quantitation) was 24 h. For the same compound, the weight loss ([3]; single dose of 20 mg/kg) was “less than 5%”, the weight loss ([3]; three weekly doses of 20 mg/kg, after the last injection) was “more than 20%” and the “Pt-DNA adduct Tmax” value (white blood cell DNA) was 48 h. For the same compound, the “Pt-DNA adduct AUC” value (white blood cell DNA) was 5247 pg Pt×h/μg DNA, the diameters of nanoparticles ([7]; after salt treatment for 2 weeks) was 25-50 nm and the diameters of nanoparticles ([7]; freshly made) was 25-50 nm.

For `N.N.O=C([O-])C1(C(=O)[O-])CCC1.[Pt+2]` [carboplatin], the “patients in whom thrombocytopenia is dose limiting” value [8] is given as 25%.

For “HA6.4-cis-[Pt(NH3)2(Nα-Acetyl-L-lysine)] [HA6.4-lys-Pt]”, the cell growth inhibition ([2]; highest dose tested (300 μM)) was < 50% and the IC50 ([2]; mean ± S.E.M., cisplatin basis) was > 500 µM.

In the case of “HA-cis-[Pt(NH3)2(Nα-AcetylGluH)] [HA-GluH-Pt]”, the IC50 [9] is reported as 623 µM, the “cellular uptake in anti-CD44 antibody and chlorpromazine treated cells” value [10] is reported as “did not differ significantly from the non-treated control” and the weight loss [11] is reported as “Less than 5%”.

In the case of `N.N.[Cl][Pt][Cl]` [Cisplatin, cisplatin, reference compound], the “cure in heterogeneous oral squamous cell carcinomas” value [12] is listed as 7%, the IC50 ([2]; mean ± S.E.M., cisplatin basis) is listed as 8.2 ± 0.6 µM and the IC50 ([2]; mean ± S.E.M., cisplatin basis, listed as cisplatin) is listed as ~8 µM. For the same compound, the “tumor response, Modified RECIST” value ([3]; animal #1) was “PR (PR=Partial Response (>30% reduction))”, the “tumor response, Modified RECIST” value ([3]; animal #2) was “PD (PD=Progressive Disease (>30% tumor growth))” and the “tumor response, Modified RECIST” value ([3]; animal #3) was “SD”. The “tumor response, Modified RECIST” value ([3]; animal #4) was “PR (PR=Partial Response (>30% reduction))”, the “tumor response, Modified RECIST” value ([3]; animal #5) was “PD (PD=Progressive Disease (>30% tumor growth))” and the “tumor response, Modified RECIST” value ([3]; animal #6) was “PR (PR=Partial Response (>30% reduction))”. The “tumor response, Modified RECIST” value ([3]; animal #7) was “PD (PD=Progressive Disease (>30% tumor growth))”, the “tumor response, Modified RECIST” value ([3]; animal #8) was “PD (PD=Progressive Disease (>30% tumor growth))” and the “rate of partial response (PR)” value ([3]; three weekly injections) was 37.5%. The “rate of progressive disease (PD)” value ([3]; three weekly injections) was 50%, the IC50 [13] was 9.4 ± 2.5 µM and the IC50 ([13]; listed as cisplatin) was ~8 µM. For the same compound, the IC50 [14] was 6.8 ± 2.7 µM, the IC50 ([14]; listed as cisplatin) was ~8 µM and the “Pt-DNA adduct Tmax” value (white blood cell DNA) was 1 h. For the same compound, the “Pt-DNA adduct AUC” value (white blood cell DNA) was 1466 pg Pt×h/μg DNA and 1255 pg Pt×h/μg DNA and the “levels of adduct formation over the time course” value (white blood cell DNA; i.v. 10 mg/kg, 15 minutes to 96 hours) was 11-16 pg Pt/μg DNA.

From US20190015518A1, “DRUG DELIVERY COMPOSITIONS AND METHODS” (priority 2016, published 2019)
